Reference: patent US8809280B2, “Therapeutic peptides” (Lytix Biopharma AS, priority 2009, dated 2014)
≈ marks a conversion by molar mass, not a printed value. Where “and” joins values, the source holds several entries; their conditions need not be identical. Identical values can stand only once. Starred links: 1 amine or outer side, 2 acyl side, 3 side chain; linkers in the order of their positions; H or OH if unused. Non-standard residues stand in square brackets, D forms with d. Residues, ends and D or L forms follow the SMILES beside them. X1 = Cc1cc(C)cc(CC(CN[*:1])(Cc2cc(C)cc(C)c2)C(=O)[*:2])c1; X4 = O=C(C(CN[*:1])(Cc1ccc(F)cc1)Cc1ccc(F)cc1)[*:2]; X2 = O=C(C(CCCc1ccccc1)(CCCc1ccccc1)CN[*:1])[*:2]; X5 = O=C(C(CCC1CCCCC1)(CCC1CCCCC1)CN[*:1])[*:2]; X3 = O=C(C(CN[*:1])(Cc1ccccc1)Cc1ccccc1)[*:2]

How the values were obtained:
Format in all cases: cell-based
[1] = test system: MRC-5; experiment: Toxicity assay MRC-5; settings: highest concentration tested 500 μg/ml; for Toxicity MRC-5: Example 2; for IC50: Homo sapiens, MRC5, Example 2
Method: Cells for Toxicity Studies Used MRC-5 and human RBC MRC-5 assay: 500 μg/ml

[2] = test system: Staphylococcus aureus (ATTC 25923); experiment: microbe, parasite or virus in culture; settings: Staphylococcus aureus, Example 2; values separated by / are repeat tests; read-out: Antimicrobial potency (MIC) S. aureus
Method: (§1) The antimicrobial testing was conducted by TosLab A/S (Tromsø, Norway). Each compound was diluted to 1 mg/ml in water and tested in duplicates at 200, 100, 50, 35, 15, 10, 5, 2.5, 1, 0.5 μg/ml except 4n which was tested at 50, 35, 15, 10, 5, 2.5, 1, 0.5 μg/ml due to solubility problems. All tested compounds were di TFA salts.
(§2) The bacterial strains were grown in 2% Bacto Peptone water until exponential growth was achieved. […] A bacterial concentration of 2×10^6 cfu/ml was used. Both negative control (no peptide) and positive control (Gentamicin) was used for all bacterial strains. Growth or no growth was judged by the turbidity of the wells.
Staphylococcus aureus (ATTC 25923)
(§3) Antimicrobial assays: 200 μg/ml
(§4) Suitable methodologies are described in Example 1.
(§5) Each compound was tested in duplicates at 200, 100, 50, 35, 15, 10, 5, 2.5, 1, 0.5 μg/ml. All tested compounds were di-trifluoroacetic acid salts.

[3] = test system: Escherichia coli (ATTC 25922); experiment: microbe, parasite or virus in culture; settings: Escherichia coli, Example 2; values separated by / are repeat tests; read-out: Antimicrobial potency (MIC) E. coli
Method: as §1, §2
Escherichia coli (ATTC 25922)
as §3, §4, §5

[4] = test system: methicillin resistant Staphylococcus aureus (ATCC 33591); experiment: microbe, parasite or virus in culture; settings: Staphylococcus aureus, ATCC 33591 / MRSA, Example 2; values separated by / are repeat tests; read-out: Antimicrobial potency (MIC) MRSA
Method: as §1, §2
Methicillin resistant Staphylococcus aureus (ATCC 33591)
as §3, §4, §5

[5] = test system: methicillin resistant Staphylococcus epidermidis (ATCC 27626); experiment: microbe, parasite or virus in culture; settings: Staphylococcus epidermidis, ATCC 27626 / MRSE, Example 2; values separated by / are repeat tests; read-out: Antimicrobial potency (MIC) MRSE
Method: as §1, §2
Methicillin resistant Staphylococcus epidermidis (ATCC 27626)
as §3, §4, §5

[6] = test system: human red blood cells; experiment: cells; settings: Homo sapiens, Erythrocyte; Example 2; highest concentration tested 1000 μg/ml; * low solubility in the test media; read-out: Toxicity RBC (EC50)
Method: The hemolytic testing against human erythrocytes was conducted by Lytix Biopharma A/S (Tromso, Norway). Each compound was tested from a concentration of 1 mg/ml and lower, except 4k and 4n which was only tested up to 0.5 mg/ml due to solubility problems. 8 mL of blood was collected from adult healthy male donors. The blood was divided equally and distributed in a commercial available EDTA containing test tube (BD vacutainer, 7.2 mg K2 EDTA) and in a 10 mL reaction vial containing 40 μL of a heparin solution (1000 U/mL in 0.9% sodium chloride). After 30 minutes the hematocrit of the EDTA treated blood was determined. The heparinized blood was centrifuged for 10 minutes at 1500 rpm and the supernatant removed. Subsequently the RBCs were washed with prewarmed PBS three times, and diluted to 10% hematocrit. The compounds dissolved in PBS (concentration 1 μg/mL to 1000 µg/mL) and the erythrocytes were incubated under agitation at 37° C. for one hour. A positive control with an end concentration of 0.1% TRITON X-100 (nonionic surfactant) and a negative control containing pure PBS buffer were included. The samples were centrifuged (4000 rpm) for 5 minutes and the absorption of the supernatant was measured at 405 nm. The values given in Table 1A correspond to 50% hemolysis.
The plasma fraction of heparinized human blood was first removed by centrifugation and three additional washing steps with 37° C. pre-warmed phosphate buffered saline (PBS). Subsequently, the human RBC were diluted to 10% hematocrit and the β^2,2-amino acid derivatives were dissolved in PBS providing concentrations ranging from 1-1000 μg/mL. The diluted RBC were added to the compound solutions to a final erythrocyte concentration of 1% v/v. PBS and TRITON X-100 (non-ionic surfactant), in a final concentration of 0.1% v/v, were included as negative and positive control. After 1 hour agitated incubation at 37° C. the samples were centrifuged at 4000 rpm for 5 min. Release of hemoglobin was determined by measuring the absorbance of the supernatant at 405 nm. Hemolytic activity was calculated as the ratio of treated sample with β^2,2-amino acid derivative and tenside treated sample according to the formula: […]

[7] = test system: A20; experiment: cells; settings: for Anti-Cancer Selectivity MRC-5/A20: ratio of MRC-5 to A20 values
Method: Cancer Cell Lines A20 or MethA Anticancer assays: 500 μg/ml

| MIC [2] | MIC [3] | MIC [4] | MIC [5] | Anticancer potency (IC50) A20 [7] | Structure (SMILES) | Toxicity MRC-5 [1] | IC50 [1] | EC50 [6] | Anti-Cancer Selectivity MRC-5/A20 [7] |
| --- | --- | --- | --- | --- | --- | --- | --- | --- | --- |
| 200 µg/mL (≈ 589 µM) | > 200 µg/mL | 100 µg/mL (≈ 295 µM) | 100 µg/mL (≈ 295 µM) |  | Cc1ccc(CC(CN)(Cc2ccc(C)cc2)C(=O)NCCN)cc1 [Compound 8, 3-amino-N-(2-aminoethyl)-2,2-bis(4-methylbenzyl)propanamide] | 44 µg/mL | 26 µg/mL (≈ 76.6 µM) | > 1000 µg/mL |  |
| 200 µg/mL (≈ 463 µM) | > 200 µg/mL | 200 µg/mL (≈ 463 µM) | 100 µg/mL (≈ 232 µM) |  | COc1cc(CC(CN)(Cc2cc(OC)cc(OC)c2)C(=O)NCCN)cc(OC)c1 [Compound 13, 3-amino-N-(2-aminoethyl)-2,2-bis(3,5-dimethoxy-benzyl)propanamide] | 68 µg/mL | 62.5 µg/mL (≈ 145 µM) | > 1000 µg/mL |  |
|  |  |  |  | 15.0 µg/mL | NCCCC[C@@H](N)C(=O)N[C@H](CCCCN)C(=O)N[C@H](Cc1c[nH]c2ccccc12)C(=O)NCC(CCC1CCCCC1)(CCC1CCCCC1)C(=O)N[C@@H](Cc1c[nH]c2ccccc12)C(=O)N[C@@H](CCCCN)C(=O)N[C@@H](CCCCN)C(N)=O [Compound 15, (R)-N-((2R,9S,12S,15S)-9-((1H-indol-3-yl)methyl)-19-amino-12-(4-aminobutyl)-15-carbamoyl-6,6-bis(2-cyclohexylethyl)-1-(1H-indol-3-yl)-3,7,10,13-tetraoxo-4,8,11,14-tetraazanonadecan-2-yl)-6-amino-2-((R)-2,6-diaminohexanamido)hexanamide] (H-[dK][dK][dW][X5]WKK-NH2) | 45.7 µg/mL |  |  | 3.0 |
|  |  |  |  | 197 µg/mL | NCCCC[C@@H](N)C(=O)N[C@H](CCCCN)C(=O)N[C@H](Cc1c[nH]c2ccccc12)C(=O)NCC(Cc1ccc(F)cc1)(Cc1ccc(F)cc1)C(=O)N[C@@H](Cc1c[nH]c2ccccc12)C(=O)N[C@@H](CCCCN)C(=O)N[C@@H](CCCCN)C(N)=O [Compound 19, (R)-N-((2R,9S,12S,15S)-9-((1H-indol-3-yl)methyl)-19-amino-12-(4-aminobutyl)-15-carbamoyl-6,6-bis(4-fluorobenzyl)-1-(1H-indol-3-yl)-3,7,10,13-tetraoxo-4,8,11,14-tetraazanonadecan-2-yl)-6-amino-2-((R)-2,6-diaminohexanamido)hexanamide] (H-[dK][dK][dW][X4]WKK-NH2) | >500 µg/mL |  |  | (>2.5) |

Second part, the compound before the results:

| Structure (SMILES) | MIC [2] | MIC [3] | MIC [4] | MIC [5] | Anticancer potency (IC50) A20 [7] | Toxicity MRC-5 [1] | IC50 [1] | EC50 [6] | Anti-Cancer Selectivity MRC-5/A20 [7] |
| --- | --- | --- | --- | --- | --- | --- | --- | --- | --- |
| NCCCC[C@@H](N)C(=O)N[C@H](CCCCN)C(=O)N[C@H](Cc1c[nH]c2ccccc12)C(=O)NCC(Cc1ccccc1)(Cc1ccccc1)C(=O)N[C@@H](Cc1c[nH]c2ccccc12)C(=O)N[C@@H](CCCCN)C(=O)N[C@@H](CCCCN)C(N)=O [Compound 16, (R)-N-((2R,9S,12S,15S)-9-((1H-indol-3-yl)methyl)-19-amino-12-(4-aminobutyl)-6,6-dibenzyl-15-carbamoyl-1-(1H-indol-3-yl)-3,7,10,13-tetraoxo-4,8,11,14-tetraazanonadecan-2-yl)-6-amino-2-((R)-2,6-diaminohexanamido)hexanamide] (H-[dK][dK][dW][X3]WKK-NH2) |  |  |  |  | 263 µg/mL | >500 µg/mL |  |  | (>1.9) |
| NCCCC[C@@H](N)C(=O)N[C@H](CCCCN)C(=O)N[C@H](Cc1c[nH]c2ccccc12)C(=O)NCC(CCCc1ccccc1)(CCCc1ccccc1)C(=O)N[C@@H](Cc1c[nH]c2ccccc12)C(=O)N[C@@H](CCCCN)C(=O)N[C@@H](CCCCN)C(N)=O [Compound 17, (R)-N-((2R,9S,12S,15S)-9-((1H-indol-3-yl)methyl)-19-amino-12-(4-aminobutyl)-15-carbamoyl-1-(1H-indol-3-yl)-3,7,10,13-tetraoxo-6,6-bis(3-phenylpropyl)-4,8,11,14-tetraazanonadecan-2-yl)-6-amino-2-((R)-2,6-diaminohexanamido)hexanamide] (H-[dK][dK][dW][X2]WKK-NH2) |  |  |  |  |  | 241 µg/mL and 221 µg/mL |  |  | 9.1 and 5.5 |
| NCCCC[C@@H](N)C(=O)N[C@H](CCCCN)C(=O)N[C@H](Cc1c[nH]c2ccccc12)C(=O)NCC(Cc1ccc2ccccc2c1)(Cc1ccc2ccccc2c1)C(=O)N[C@@H](Cc1c[nH]c2ccccc12)C(=O)N[C@@H](CCCCN)C(=O)N[C@@H](CCCCN)C(N)=O [Compound 18, (R)-N-((2R,9S,12S,15S)-9-((1H-indol-3-yl)methyl)-19-amino-12-(4-aminobutyl)-15-carbamoyl-1-(1H-indol-3-yl)-6,6-bis(naphthalen-2-ylmethyl)-3,7,10,13-tetraoxo-4,8,11,14-tetraazanonadecan-2-yl)-6-amino-2-((R)-2,6-diaminohexanamido)hexanamide] |  |  |  |  | 24 µg/mL | 103 µg/mL |  |  | 4.3 |
| NCCCC[C@@H](N)C(=O)N[C@H](CCCCN)C(=O)N[C@H](Cc1c[nH]c2ccccc12)C(=O)NCC(Cc1ccc(C(F)(F)F)cc1)(Cc1ccc(C(F)(F)F)cc1)C(=O)N[C@@H](Cc1c[nH]c2ccccc12)C(=O)N[C@@H](CCCCN)C(=O)N[C@@H](CCCCN)C(N)=O [Compound 20, (R)-N-((2R,9S,12S,15S)-9-((1H-indol-3-yl)methyl)-19-amino-12-(4-aminobutyl)-15-carbamoyl-1-(1H-indol-3-yl)-3,7,10,13-tetraoxo-6,6-bis(4-(trifluoromethyl)benzyl)-4,8,11,14-tetraazanonadecan-2-yl)-6-amino-2-((R)-2,6-diaminohexanamido)hexanamide] |  |  |  |  | 37 µg/mL | 260 µg/mL |  |  | 7.0 |
| CC(C)(C)c1ccc(CC(CNC(=O)[C@@H](Cc2c[nH]c3ccccc23)NC(=O)[C@@H](CCCCN)NC(=O)[C@H](N)CCCCN)(Cc2ccc(C(C)(C)C)cc2)C(=O)N[C@@H](Cc2c[nH]c3ccccc23)C(=O)N[C@@H](CCCCN)C(=O)N[C@@H](CCCCN)C(N)=O)cc1 [Compound 21, (R)-N-((2R,9S,12S,15S)-9-((1H-indol-3-yl)methyl)-19-amino-12-(4-aminobutyl)-6,6-bis(4-tert-butylbenzyl)-15-carbamoyl-1-(1H-indol-3-yl)-3,7,10,13-tetraoxo-4,8,11,14-tetraazanonadecan-2-yl)-6-amino-2-((R)-2,6-diaminohexanamido)hexanamide] |  |  |  |  |  | 42 µg/mL and 55.2 µg/mL |  |  | 2.9 and 3.2 |
| Cc1cc(C)cc(CC(CNC(=O)[C@@H](Cc2c[nH]c3ccccc23)NC(=O)[C@@H](CCCCN)NC(=O)[C@H](N)CCCCN)(Cc2cc(C)cc(C)c2)C(=O)N[C@@H](Cc2c[nH]c3ccccc23)C(=O)N[C@@H](CCCCN)C(=O)N[C@@H](CCCCN)C(N)=O)c1 [Compound 22, (R)-N-((2R,9S,12S,15S)-9-((1H-indol-3-yl)methyl)-19-amino-12-(4-aminobutyl)-15-carbamoyl-6,6-bis(3,5-dimethylbenzyl)-1-(1H-indol-3-yl)-3,7,10,13-tetraoxo-4,8,11,14-tetraazanonadecan-2-yl)-6-amino-2-((R)-2,6-diaminohexanamido)hexanamide] (H-[dK][dK][dW][X1]WKK-NH2) |  |  |  |  |  | 237 µg/mL and 205 µg/mL |  |  | 7.4 and 5.1 |
